Experimental data from patent publication US20240409536A1, “COMPOUNDS AND METHODS FOR MODULATING SPLICING” (REMIX THERAPEUTICS INC., priority 2021, published 2024).
Counter-ions that a name gives are not always drawn.

How the values were obtained:
MYB mRNA [1] = assay: Splicing RT-qPCR assay, MYB canonical (CJ) and alternative (AJ) junction mRNA; type: cell-based; conditions: Homo sapiens, A673 or K562 cells, 24 hours; for IC50: decrease in canonical junction mRNA; for AC50: increase in alternative junction mRNA
In short: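 Canonical and alternative junction mRNAs measured by cell-lysate one-step RT-qPCR, normalized to PPIA in A673 or GAPDH/GUSB in K562. Cells received compound for 24 h at 37 °C, 5% CO2, 11-point 3-fold series from 10 uM final top dose, DMSO at most 0.25%.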

MYB mRNA [2] = assay: Gene panel canonical junction qPCR assay, MYB CJ mRNA decrease; type: cell-based, human; conditions: Homo sapiens, canonical junction qPCR, read-out: MYB IC50 (decrease in CJ mRNA levels)
In short: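 IC50 values describe loss of canonical-junction transcript, fitted by 4-parameter logistic to percent response derived from fixed ΔCt windows. Read-out: RT-qPCR on lysates of compound-treated K562 or A673 cells, probes overlapping the exon junction, ΔΔCt versus housekeeping gene and DMSO control.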

IC50 (MYB mRNA [1]) [µM]	IC50 (MYB mRNA [2]) [µM]	Structure (SMILES)	AC50 (MYB mRNA [1]) [µM]
0.1 to 1	0.1 to 1	COCCOc1cc2c(N3CCNCC3)ccc(C(=O)Nc3cc(F)c4nc(C)cn4c3)c2nn1 [Compound 199, N-{8-fluoro-2-methylimidazo[1,2-a]pyridin-6-yl}-3-(2-methoxyethoxy)-5-(piperazin-1-yl)cinnoline-8-carboxamide]	< 0.1
1 to 10	1 to 10	Cc1cn2cc(NC(=O)c3ccc(N4CCN(CCF)C5(CC5)C4)c4nccnc34)cc(F)c2n1 [Compound 370]	> 10
< 0.1	< 0.1	Cc1cn2cc(NC(=O)c3ccc(N4C[C@@H](C)N[C@@H](C)C4)c4nccnc34)cc(F)c2n1 [Compound 186, 8-(3,5-dimethylpiperazin-1-yl)-N-{8-fluoro-2-methylimidazo[1,2-a]pyridin-6-yl}quinoxaline-5-carboxamide]	< 0.1
< 0.1	< 0.1	Cc1cnc2c(C(=O)Nc3cc(F)c4nc(C)cn4c3)ccc(N3CCC(N(C)C)CC3)c2n1 [Compound 208, 8-[4-(dimethylamino)piperidin-1-yl]-N-{8-fluoro-2-methylimidazo[1,2-a]pyridin-6-yl}-2-methylquinoxaline-5-carboxamide; bis(trifluoroacetic acid)]	< 0.1
< 0.1	< 0.1	Cc1cn2cc(NC(=O)c3ccc(N4CCC(N(C)C)CC4)c4ccnnc34)cc(F)c2n1 [Compound 137]	< 0.1
< 0.1	< 0.1	Cc1cn2cc(NC(=O)c3ccc(N4CCN5CCC[C@@H]5C4)c4ccnnc34)cc(F)c2n1 [Compound 153]	< 0.1
1 to 10	1 to 10	Cc1cn2nc(NC(=O)c3ccc(N4CCNCC4)c4ccnnc34)cc2c(C)n1 [Compound 123]	1 to 10
0.1 to 1	0.1 to 1	Cc1cn2cc(NC(=O)c3ccc(N4CCNCC4)c4ccnnc34)[nH]c(=O)c2n1 [Compound 177, N-{2-methyl-8-oxo-7H-imidazo[1,2-a]pyrazin-6-yl}-5-(piperazin-1-yl)cinnoline-8-carboxamide trifluoroacetic acid salt]	0.1 to 1
0.1 to 1	0.1 to 1	Cc1ccc2c(N3CCC(N(C)C)CC3)ccc(C(=O)Nc3cc(F)c4nc(C)cn4c3)c2n1 [Compound 215, 5-[4-(dimethylamino)piperidin-1-yl]-N-{8-fluoro-2-methylimidazo[1,2-a]pyridin-6-yl}-2-methylquinoline-8-carboxamide]	0.1 to 1
< 0.1	< 0.1	Cc1ccc2c(N3CCNCC3)ccc(C(=O)Nc3cc(F)c4nc(C)cn4c3)c2n1 [Compound 162, N-{8-fluoro-2-methylimidazo[1,2-a]pyridin-6-yl}-2-methyl-5-(piperazin-1-yl)quinoline-8-carboxam-ide, trifluoroacetic acid]	< 0.1

Structure (SMILES)	IC50 (MYB mRNA [1]) [µM]	IC50 (MYB mRNA [2]) [µM]	AC50 (MYB mRNA [1]) [µM]
Cc1cn2cc(NC(=O)c3ccc(N4C[C@H]5CC[C@@H](C4)N5)c4ccnnc34)cc(F)c2n1 [Compound 108]	0.1 to 1	0.1 to 1	0.1 to 1
